These results are taken from ChEMBL document CHEMBL4402577, “Discovery and Optimization of a Compound Series Active against Trypanosoma cruzi, the Causative Agent of Chagas Disease” (J Med Chem, 2020).

In brackets after ≈: the same amount, converted by molar mass. Activity calls are given as the source filed them. No cut-off for these calls is given here.

System in the first data set: not listed separately
The data set can be described thus: Kinetic aqueous solubility of compound in DMSO by nephelometric analysis. Format: physicochemical. Particulars: read-out: Kinetic_solubility.
With `CCC[C@H]1CC[C@H](n2c(=O)[nH]c3ccc(NC(C)=O)cc3c2=O)CC1`, the solubility kinetic stood at 47 µM (≈ 16.1 µg/mL).

Regarding `CC(=O)Nc1ccc2[nH]c(=O)n(C3CCC(C)(C)CC3)c(=O)c2c1`, the solubility kinetic amounted to 128 µM (≈ 42.2 µg/mL).

For the molecule `CC[C@H]1CC[C@H](n2c(=O)[nH]c3ccc(NC(C)=O)cc3c2=O)CC1`, the solubility kinetic is 115 µM (≈ 37.9 µg/mL).

Turning to `CC(C)[C@H]1CC[C@H](n2c(=O)[nH]c3ncc(N)cc3c2=O)CC1`, the solubility kinetic was found to be 25 µM (≈ 7.56 µg/mL).

Take `CC(=O)Nc1ccc2[nH]c(=O)n([C@H]3CC[C@H](C(C)C)CC3)c(=O)c2c1`: the solubility kinetic was found to be 73 µM (≈ 25.1 µg/mL).

Turning to `CC(=O)Nc1cnc2[nH]c(=O)n([C@H]3CC[C@@H](C(C)C)CC3)c(=O)c2c1`, the solubility kinetic worked out at 15 µM (≈ 5.17 µg/mL).

Regarding `CC(=O)Nc1cnc2[nH]c(=O)n([C@H]3CC[C@H](C(C)(C)C)CC3)c(=O)c2c1`, the solubility kinetic was 310 µM (≈ 111 µg/mL).

Turning to `CC(C)(C)[C@H]1CC[C@@H](n2c(=O)[nH]c3ccc(N)cc3c2=O)CC1`, the solubility kinetic was 240 µM (≈ 75.7 µg/mL).

Consider `CC(=O)Nc1cnc2[nH]c(=O)n([C@H]3CC[C@@H](C(C)(C)C)CC3)c(=O)c2c1`, for which the solubility kinetic was less than 28 µM.

Consider `CC(=O)Nc1ccc2[nH]c(=O)n([C@H]3CC[C@@H](C(F)(F)F)CC3)c(=O)c2c1`, for which the solubility kinetic was 180 µM (≈ 66.5 µg/mL).

In a further data set the test system is L6. The data set is described as follows: Cytotoxicity against rat L6 cells incubated for 70 hrs by resazurin dye based assay. The data set is classed as cell-based. Particulars: L6, 70 h.
Molecule `CC(C)(C)[C@H]1CC[C@H](n2c(=O)[nH]c3ccc(N)cc3c2=O)CC1` displayed an EC50 of 21 µM.

In the case of `CCC[C@H]1CC[C@H](n2c(=O)[nH]c3ccc(NC(C)=O)cc3c2=O)CC1`, the EC50 came to 11 µM.

For the molecule `CC(=O)Nc1ccc2[nH]c(=O)n(C3CCC(C)(C)CC3)c(=O)c2c1`, the EC50 was found to be 12 µM.

`CC[C@H]1CC[C@H](n2c(=O)[nH]c3ccc(NC(C)=O)cc3c2=O)CC1` registered an EC50 of 14 µM.

`CC(C)[C@H]1CC[C@H](n2c(=O)[nH]c3ncc(N)cc3c2=O)CC1` registered a 50% effective concentration (EC50) of 46 µM.

On to `CC(=O)Nc1ccc2[nH]c(=O)n([C@H]3CC[C@H](C(C)C)CC3)c(=O)c2c1`, for which a half-maximal response (EC50) required 3.8 µM.

Molecule `CC(=O)Nc1cnc2[nH]c(=O)n([C@H]3CC[C@@H](C(C)C)CC3)c(=O)c2c1` showed an EC50 of 16 µM.

With `CC(=O)Nc1cnc2[nH]c(=O)n([C@H]3CC[C@H](C(C)(C)C)CC3)c(=O)c2c1`, the EC50 was determined as 67 µM.

Molecule `CC(=O)Nc1cnc2[nH]c(=O)n([C@H]3CC[C@@H](C(C)(C)C)CC3)c(=O)c2c1` displayed an EC50 of 15 µM.

Molecule `CC(=O)Nc1ccc2[nH]c(=O)n([C@H]3CC[C@@H](C(F)(F)F)CC3)c(=O)c2c1` came in with an EC50 of 18 µM.

System in a further data set: not listed separately
The data set can be described thus: Selectivity ratio, EC50 for cytotoxicity against rat L6 cells to EC50 for antitrypanosomal activity against Trypanosoma cruzi Tulahuen strain C2C4 trypomastigotes infected in rat L6 cells. The data set is classed as toxicity, cell-based. Particulars: read-out: Ratio EC50.
On to `CC(C)(C)[C@H]1CC[C@H](n2c(=O)[nH]c3ccc(N)cc3c2=O)CC1`, for which the selectivity ratio worked out at 330.

Consider `CCC[C@H]1CC[C@H](n2c(=O)[nH]c3ccc(NC(C)=O)cc3c2=O)CC1`, for which the selectivity ratio was determined as 730.

For `CC(=O)Nc1ccc2[nH]c(=O)n(C3CCC(C)(C)CC3)c(=O)c2c1`, the selectivity ratio was determined as 67.

Turning to `CC[C@H]1CC[C@H](n2c(=O)[nH]c3ccc(NC(C)=O)cc3c2=O)CC1`, the selectivity ratio came to 240.

In the case of `CC(C)[C@H]1CC[C@H](n2c(=O)[nH]c3ncc(N)cc3c2=O)CC1`, the selectivity ratio turned out to be 380.

With `CC(=O)Nc1ccc2[nH]c(=O)n([C@H]3CC[C@H](C(C)C)CC3)c(=O)c2c1`, the selectivity ratio was 150.

With `CC(=O)Nc1cnc2[nH]c(=O)n([C@H]3CC[C@@H](C(C)C)CC3)c(=O)c2c1`, the selectivity ratio is 42.

On to `CC(=O)Nc1cnc2[nH]c(=O)n([C@H]3CC[C@H](C(C)(C)C)CC3)c(=O)c2c1`, for which the selectivity ratio came out at 80.

With `CC(=O)Nc1cnc2[nH]c(=O)n([C@H]3CC[C@@H](C(C)(C)C)CC3)c(=O)c2c1`, the selectivity ratio came to 150.

On to `CC(=O)Nc1ccc2[nH]c(=O)n([C@H]3CC[C@@H](C(F)(F)F)CC3)c(=O)c2c1`, for which the selectivity ratio worked out at 4.2.

A further data set has as its system Trypanosoma cruzi. The data set is described as follows: Antitrypanosomal activity against Trypanosoma cruzi Tulahuen strain C2C4 trypomastigotes infected in rat L6 cells incubated for 96 hrs by photometric method based assay. The settings on record: Tulahuen strain C2C4, L6, 96 h. Format: functional, organism-based.
In turn, `CC(C)(C)[C@H]1CC[C@H](n2c(=O)[nH]c3ccc(N)cc3c2=O)CC1` yielded an EC50 of 0.063 µM.

`CCC[C@H]1CC[C@H](n2c(=O)[nH]c3ccc(NC(C)=O)cc3c2=O)CC1` displayed a concentration for a half-maximal effect (EC50) of 0.015 µM.

`CC(=O)Nc1ccc2[nH]c(=O)n(C3CCC(C)(C)CC3)c(=O)c2c1` returned an EC50 of 0.18 µM.

Turning to `CC[C@H]1CC[C@H](n2c(=O)[nH]c3ccc(NC(C)=O)cc3c2=O)CC1`, the EC50 is 0.058 µM.

As for `CC(C)[C@H]1CC[C@H](n2c(=O)[nH]c3ncc(N)cc3c2=O)CC1`, the EC50 was determined as 0.12 µM.

On to `CC(=O)Nc1ccc2[nH]c(=O)n([C@H]3CC[C@H](C(C)C)CC3)c(=O)c2c1`, for which a half-maximal response (EC50) required 0.026 µM and the 90% effect concentration (EC90) was 0.038 µg/mL (≈ 0.111 µM).

Consider `CC(=O)Nc1cnc2[nH]c(=O)n([C@H]3CC[C@@H](C(C)C)CC3)c(=O)c2c1`, for which it took 0.38 µM to reach a half-maximal effect (EC50).

As to `CC(=O)Nc1cnc2[nH]c(=O)n([C@H]3CC[C@H](C(C)(C)C)CC3)c(=O)c2c1`, the EC50 came to 0.84 µM.

`CC(=O)Nc1cnc2[nH]c(=O)n([C@H]3CC[C@@H](C(C)(C)C)CC3)c(=O)c2c1` came in with an EC50 of 0.1 µM.

Regarding `CC(=O)Nc1ccc2[nH]c(=O)n([C@H]3CC[C@@H](C(F)(F)F)CC3)c(=O)c2c1`, the EC50 turned out to be 4.3 µM.

The test system of the next data set is Trypanosoma cruzi. The data set is described as follows: Antitrypanosomal activity against Trypanosoma cruzi Brazil strain trypomastigotes coexpressing luciferase infected in BALB/c mouse model of acute chagas disease assessed as reduction in parasite level at 30 mg/kg, ip treated 3 days post infection and measured on day 5 and 10.
Details: not given
Format: functional, organism-based.
As to `CC(C)(C)[C@H]1CC[C@H](n2c(=O)[nH]c3ccc(N)cc3c2=O)CC1`, the result was inactive.

As to `CC(=O)Nc1ccc2[nH]c(=O)n([C@H]3CC[C@H](C(C)C)CC3)c(=O)c2c1`, the outcome was Active.

System in the next data set: not listed separately
The data set can be described thus: Fraction unbound in NMRI mouse plasma at 30 mg/kg, iv by UPLC-MS/MS analysis. The data set is classed as ADME, organism-based.
Details: not given
Turning to `CC(C)(C)[C@H]1CC[C@H](n2c(=O)[nH]c3ccc(N)cc3c2=O)CC1`, the fraction unbound stood at 0.011.

For `CC(=O)Nc1ccc2[nH]c(=O)n([C@H]3CC[C@H](C(C)C)CC3)c(=O)c2c1`, the unbound share (fraction unbound) is 0.028.

System in a further data set: not listed separately
The data set can be described thus: Intrinsic clearance in CD1 mouse liver microsomes at 0.5 uM measured up to 30 mins in presence of NADPH by UPLC-MSMS analysis. Format: ADME, Microsome. Particulars: 0.5 h.
As to `CC(C)(C)[C@H]1CC[C@H](n2c(=O)[nH]c3ccc(N)cc3c2=O)CC1`, the intrinsic clearance is 2 mL/min/g.

For the molecule `CCC[C@H]1CC[C@H](n2c(=O)[nH]c3ccc(NC(C)=O)cc3c2=O)CC1`, the intrinsic clearance was found to be 1.5 mL/min/g.

As to `CC(=O)Nc1ccc2[nH]c(=O)n(C3CCC(C)(C)CC3)c(=O)c2c1`, the intrinsic clearance came out at 3.7 mL/min/g.

On to `CC[C@H]1CC[C@H](n2c(=O)[nH]c3ccc(NC(C)=O)cc3c2=O)CC1`, for which the intrinsic clearance worked out at 2.4 mL/min/g.

On to `CC(C)[C@H]1CC[C@H](n2c(=O)[nH]c3ncc(N)cc3c2=O)CC1`, for which the intrinsic clearance turned out to be 1.9 mL/min/g.

As for `CC(=O)Nc1ccc2[nH]c(=O)n([C@H]3CC[C@H](C(C)C)CC3)c(=O)c2c1`, the intrinsic clearance came out at 3.2 mL/min/g.

Turning to `CC(=O)Nc1cnc2[nH]c(=O)n([C@H]3CC[C@@H](C(C)C)CC3)c(=O)c2c1`, the intrinsic clearance is 10 mL/min/g.

As to `CC(=O)Nc1cnc2[nH]c(=O)n([C@H]3CC[C@H](C(C)(C)C)CC3)c(=O)c2c1`, the intrinsic clearance came out at 1.4 mL/min/g.

With `CC(C)(C)[C@H]1CC[C@@H](n2c(=O)[nH]c3ccc(N)cc3c2=O)CC1`, the intrinsic clearance turned out to be 3.9 mL/min/g.

`CC(=O)Nc1cnc2[nH]c(=O)n([C@H]3CC[C@@H](C(C)(C)C)CC3)c(=O)c2c1`: the intrinsic clearance amounted to 15 mL/min/g.

Turning to `CC(=O)Nc1ccc2[nH]c(=O)n([C@H]3CC[C@@H](C(F)(F)F)CC3)c(=O)c2c1`, the intrinsic clearance turned out to be 2.7 mL/min/g.

System in another data set: not listed separately
The data set is described as follows: Toxicity in ip dosed BALB/c mouse model of acute chagas disease assessed as maximum tolerated dose. The data set is classed as organism-based. Particulars: in vivo.
Turning to `CC(C)(C)[C@H]1CC[C@H](n2c(=O)[nH]c3ccc(N)cc3c2=O)CC1`, the maximum tolerated dose (MTD) was 30 mg/kg.

A further data set has as its system Trypanosoma cruzi. The data set is described as follows: Antitrypanosomal activity against Trypanosoma cruzi Brazil strain trypomastigotes coexpressing luciferase infected in BALB/c mouse model of acute chagas disease assessed as reduction in parasite level at 30 mg/kg, po treated 3 days post infection and measured on day 5 and 10.
Details: not given
The data set is classed as functional, organism-based.
Turning to `CC(C)(C)[C@H]1CC[C@H](n2c(=O)[nH]c3ccc(N)cc3c2=O)CC1`, the outcome was inactive.

For `CC(=O)Nc1ccc2[nH]c(=O)n([C@H]3CC[C@H](C(C)C)CC3)c(=O)c2c1`, the outcome was Active.
